Data from patent US20130158075A1, “HETEROCYCLIC COMPOUNDS AS DGAT1 INHIBITORS” (PIRAMAL ENTERPRISES LIMITED, priority 2010, published 2013).
Counter-ions that a name gives are not always drawn.

Target: T1, hDGAT1 (Homo sapiens, UniProt O75907)
T1 construct: made in house; host or cells: Sf9 insect cells (baculovirus); microsomal fraction
T1 sequence (O75907 1-488): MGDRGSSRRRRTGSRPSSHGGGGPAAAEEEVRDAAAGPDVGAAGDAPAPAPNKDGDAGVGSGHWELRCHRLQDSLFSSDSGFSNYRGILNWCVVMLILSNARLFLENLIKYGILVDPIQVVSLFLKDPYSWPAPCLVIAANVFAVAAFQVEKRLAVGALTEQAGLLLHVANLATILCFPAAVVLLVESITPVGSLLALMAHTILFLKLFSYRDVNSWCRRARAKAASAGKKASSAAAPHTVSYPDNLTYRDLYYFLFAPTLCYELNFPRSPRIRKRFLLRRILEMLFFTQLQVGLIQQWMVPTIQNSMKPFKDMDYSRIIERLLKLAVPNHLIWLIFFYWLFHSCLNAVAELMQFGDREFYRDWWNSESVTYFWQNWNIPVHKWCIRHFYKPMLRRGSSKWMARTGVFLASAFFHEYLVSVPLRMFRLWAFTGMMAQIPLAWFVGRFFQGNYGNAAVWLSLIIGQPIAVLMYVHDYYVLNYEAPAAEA
Test: In-vitro DGAT1 assay with hDGAT1 microsomes from Sf9 cells (14C oleoyl CoA, scintillation counting)
Format: biochemical
Settings: for inhibition at 1 µM: read-out: Percentage inhibition of hDGAT1; for Percentage inhibition of hDGAT1: at 1 μM
How it was run: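 Microsomes from Sf9 cells infected with hDGAT1 baculovirus (MOI 5, harvested ~66-72 h) were incubated with [14C]oleoyl-CoA and 1,2-dioleoyl-sn-glycerol at 37 °C for 10 min, in duplicate. After alkaline ethanol stop, triglycerides were heptane-extracted and counted by liquid scintillation; percent inhibition was plotted against compound concentration (nM).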

inhibition at 1 µM [%] | Percentage inhibition of hDGAT1 | Compound
> 50 |  | Cc1noc(CC2CCC(c3ncc(-c4ccc(NC(=O)Nc5cc(F)c(F)cc5F)cc4)s3)CC2)n1 (stereo not drawn) [Example 393, 1-(4-(2-(4-((3-Methyl-1,2,4-oxadiazol-5-yl)methyl)cyclohexyl)thiazol-5-yl)phenyl)-3-(2,4,5-trifluorophenyl)urea]
> 50 |  | Cc1noc(CC2CCC(c3ncc(-c4ccc(NC(=O)Nc5ccc(F)cc5F)cc4)s3)CC2)n1 (stereo not drawn) [Example 394, 1-(2,4-Difluorophenyl)-3-(4-(2-(4-((3-methyl-1,2,4-oxadiazol-5-yl)methyl)cyclohexyl)thiazol-5-yl)phenyl)urea]
20 to 50 |  | Cc1noc(CC2CCC(c3ncc(-c4ccc(NC(=O)c5c(F)cccc5F)cc4)s3)CC2)n1 (stereo not drawn) [Example 396, 2,6-Difluoro-N-(4-(2-(4-((3-methyl-1,2,4-oxadiazol-5-yl)methyl)cyclohexyl)thiazol-5-yl)phenyl)benzamide]
> 50 |  | CC(=O)NC(=O)CC1CCC(c2ncc(-c3ccc(NC(=O)Nc4ccccc4Cl)cc3)s2)CC1 (stereo not drawn) [Example 400, N-Acetyl-2-(4-(5-(4-(3-(2-chlorophenyl)ureido)phenyl)thiazol-2-yl)cyclohexyl)acetamide]
> 50 |  | CC(=O)NC(=O)CC1CCC(c2ncc(-c3ccc(NC(=O)Nc4ccc(F)cc4F)cc3)s2)CC1 (stereo not drawn) [Example 401, N-Acetyl-2-(4-(5-(4-(3-(2,4-difluorophenyl)ureido)phenyl)thiazol-2-yl)cyclohexyl)acetamide]
> 50 |  | CC(=O)NC(=O)CC1CCC(c2ncc(-c3ccc(NC(=O)Nc4cc(F)c(F)cc4F)cc3)s2)CC1 (stereo not drawn) [Example 402, N-Acetyl-2-(4-(5-(4-(3-(2,4,5-trifluorophenyl)ureido)phenyl)thiazol-2-yl)cyclohexyl)acetamide]
 | + (20-50% Inhibition) | CC(=O)NC(=O)CC1CCC(c2ncc(-c3ccc(NC(=O)c4c(F)cccc4F)cc3)s2)CC1 (stereo not drawn) [Example 403, N-(4-(2-(4-(2-Acetamido-2-oxoethyl)cyclohexyl)thiazol-5-yl)phenyl)-2,6-difluoro benzamide]
> 50 |  | CC(C)(O)C1CCC(c2ncc(-c3ccc(NC(=O)Nc4ccccc4Cl)cc3)s2)CC1 (stereo not drawn) [Example 404, 1-(2-Chlorophenyl)-3-(4-(2-(4-(2-hydroxypropan-2-yl)cyclohexyl)thiazol-5-yl)phenyl)urea]
> 50 |  | CC(C)(O)C1CCC(c2ncc(-c3ccc(NC(=O)Nc4cc(F)cc(F)c4)cc3)s2)CC1 (stereo not drawn) [Example 405, 1-(3,5-Difluorophenyl)-3-(4-(2-(4-(2-hydroxypropan-2-yl)cyclohexyl)thiazol-5-yl)phenyl)urea]
> 50 |  | CC(C)(O)C1CCC(c2ncc(-c3ccc(NC(=O)Nc4ccc(F)cc4F)cc3)s2)CC1 (stereo not drawn) [Example 406, 1-(2,4-Difluorophenyl)-3-(4-(2-(4-(2-hydroxypropan-2-yl)cyclohexyl)thiazol-5-yl)phenyl)urea]
> 50 |  | CC(C)(O)CC1CCC(c2ncc(-c3ccc(NC(=O)Nc4ccc(F)cc4F)cc3)s2)CC1 (stereo not drawn) [Example 407, 1-(2,4-Difluorophenyl)-3-(4-(2-(4-(2-hydroxy-2-methylpropyl)cyclohexyl)thiazol-5-yl)phenyl)urea]
> 50 |  | CC(C)(O)CC1CCC(c2ncc(-c3ccc(NC(=O)Nc4cc(F)cc(F)c4)cc3)s2)CC1 (stereo not drawn) [Example 408, 1-(3,5-Difluorophenyl)-3-(4-(2-(4-(2-hydroxy-2-methylpropyl)cyclohexyl)thiazol-5-yl)phenyl)urea]
 | ++ (>50 % Inhibition) | CC(C)(O)CC1CCC(c2ncc(-c3ccc(NC(=O)Nc4cc(F)c(F)cc4F)cc3)s2)CC1 (stereo not drawn) [Example 409]
> 50 |  | NNC(=O)CC1CCC(c2ncc(-c3ccc(NC(=O)Nc4cc(F)cc(F)c4)cc3)s2)CC1 (stereo not drawn) [Example 410, 1-(3,5-Difluorophenyl)-3-(4-(2-(4-(2-hydrazinyl-2-oxoethyl)cyclohexyl)thiazol-5-yl)phenyl)urea]
> 50 |  | Cc1nnc(CC2CCC(c3ncc(-c4ccc(N)cc4)s3)CC2)s1 (stereo not drawn) [Example 413, 4-(2-(4-((5-Methyl-1,3,4-thiadiazol-2-yl)methyl)cyclohexyl)thiazol-5-yl)aniline]
> 50 |  | Cc1nnc(CC2CCC(c3ncc(-c4ccc(NC(=O)Nc5cc(F)c(F)cc5F)cc4)s3)CC2)s1 (stereo not drawn) [Example 414, 1-(4-(2-(4-((5-Methyl-1,3,4-thiadiazol-2-yl)methyl)cyclohexyl)thiazol-5-yl)phenyl)-3-(2,4,5-trifluorophenyl)urea]
> 50 |  | O=C(O)CN1CCC(c2ncc(-c3ccc(NC(=O)Nc4ccccc4Cl)cc3)s2)CC1 [Example 429, 2-(4-(5-(4-(3-(2-Chlorophenyl)ureido)phenyl)thiazol-2-yl)piperidin-1-yl)acetic acid]

inhibition at 1 µM [%] | Percentage inhibition of hDGAT1 | Compound
> 50 |  | O=C(O)CN1CCC(c2ncc(-c3ccc(NC(=O)Nc4ccccc4F)cc3)s2)CC1 [Example 431, 2-(4-(5-(4-(3-(2-Fluorophenyl)ureido)phenyl)thiazol-2-yl)piperidin-1-yl)acetic acid]
> 50 |  | O=C(O)CN1CCC(c2ncc(-c3ccc(NC(=O)Nc4ccc(F)cc4F)cc3)s2)CC1 [Example 433, 2-(4-(5-(4-(3-(2,4-Difluorophenyl)ureido)phenyl)thiazol-2-yl)piperidin-1-yl)acetic acid]
> 50 |  | O=C(O)CN1CCC(c2ncc(-c3ccc(NC(=O)Nc4cc(F)c(F)cc4F)cc3)s2)CC1 [Example 435, 2-(4-(5-(4-(3-(2,4,5-Trifluorophenyl)ureido)phenyl)thiazol-2-yl)piperidin-1-yl)acetic acid]
> 50 |  | O=C(O)CN1CCC(c2ncc(-c3ccc(NC(=O)Nc4ccccc4C(F)(F)F)cc3)s2)CC1 [Example 437, 2-(4-(5-(4-(3-(2-(Trifluoromethyl)phenyl)ureido)phenyl)thiazol-2-yl)piperidin-1-yl)acetic acid]
20 to 50 |  | O=C(O)CN1CCC(c2ncc(-c3ccc(NC(=O)Nc4ccc(F)c(F)c4F)cc3)s2)CC1 [Example 439, 2-(4-(5-(4-(3-(2,3,4-Trifluorophenyl)ureido)phenyl)thiazol-2-yl)piperidin-1-yl)acetic acid]
> 50 |  | CC(C(=O)O)N1CCC(c2ncc(-c3ccc(NC(=O)Nc4cc(F)c(F)cc4F)cc3)s2)CC1 (stereo not drawn) [Example 451, 2-(4-(5-(4-(3-(2,4,5-Trifluorophenyl)ureido)phenyl)thiazol-2-yl)piperidin-1-yl)propanoic acid]
> 50 |  | CC(C(=O)O)N1CCC(c2ncc(-c3ccc(NC(=O)Nc4ccccc4F)cc3)s2)CC1 (stereo not drawn) [Example 453, 2-(4-(5-(4-(3-(2-Fluorophenyl)ureido)phenyl)thiazol-2-yl)piperidin-1-yl) propanoic acid]
> 50 |  | CC(C(=O)O)N1CCC(c2ncc(-c3ccc(NC(=O)Nc4ccccc4Cl)cc3)s2)CC1 (stereo not drawn) [Example 455, 2-(4-(5-(4-(3-(2-Chlorophenyl)ureido)phenyl)thiazol-2-yl)piperidin-1-yl)propanoic acid]
> 50 |  | CC(C(=O)O)N1CCC(c2ncc(-c3ccc(NC(=O)Nc4c(F)cc(F)cc4F)cc3)s2)CC1 (stereo not drawn) [Example 459, 2-(4-(5-(4-(3-(2,4,6-Trifluorophenyl)ureido)phenyl)thiazol-2-yl)piperidin-1-yl)propanoic acid]
20 to 50 |  | O=C(Nc1ccc(-c2cnc(C3CCNCC3)s2)cc1)Nc1ccccc1Cl [Example 474, 1-(2-Chlorophenyl)-3-(4-(2-(piperidin-4-yl)thiazol-5-yl)phenyl)urea hydrochloride]
20 to 50 |  | CC(C)(C)OC(=O)N1CCC(c2ncc(-c3ccc(NC(=O)Nc4ccccc4F)cc3)s2)CC1 [Example 475, t-Butyl 4-(5-(4-(3-(2-fluorophenyl)ureido)phenyl)thiazol-2-yl)piperidine-1-carboxylate]
20 to 50 |  | O=C(Nc1ccc(-c2cnc(C3CCNCC3)s2)cc1)Nc1ccccc1F [Example 476, 1-(2-Fluorophenyl)-3-(4-(2-(piperidin-4-yl)thiazol-5-yl)phenyl)urea hydrochloride]
20 to 50 |  | CC(C)(C)OC(=O)N1CCC(c2ncc(-c3ccc(NC(=O)Nc4ccc(F)cc4F)cc3)s2)CC1 [Example 477, t-Butyl 4-(5-(4-(3-(2,4-difluorophenyl)ureido)phenyl)thiazol-2-yl)piperidine-1-carboxylate]
20 to 50 |  | O=C(Nc1ccc(-c2cnc(C3CCNCC3)s2)cc1)Nc1ccc(F)cc1F [Example 478, 1-(2,4-Difluorophenyl)-3-(4-(2-(piperidin-4-yl)thiazol-5-yl)phenyl)urea hydrochloride]
20 to 50 |  | CC(C)(C)OC(=O)N1CCC(c2ncc(-c3ccc(NC(=O)Nc4c(F)cc(F)cc4F)cc3)s2)CC1 [Example 479, t-Butyl 4-(5-(4-(3-(2,4,6-trifluorophenyl)ureido)phenyl)thiazol-2-yl)piperidine-1-carboxylate]
20 to 50 |  | O=C(Nc1ccc(-c2cnc(C3CCNCC3)s2)cc1)Nc1cc(F)c(F)cc1F [Example 480, 1-(4-(2-(Piperidin-4-yl)thiazol-5-yl)phenyl)-3-(2,4,5-trifluorophenyl)urea hydrochloride]
